The numbers were not newly measured in patent US8642009B2, “Diagnostic system for the detection of skin cancer” (priority 2005, dated 2014), which cites them from elsewhere.

Where two headings read alike, the source gives them in different places. Marks after values point to notes of the source that are not given here.

Series [1] relates to Osteo murine osteosarcoma. Particulars: Osteo tumour model.
A further series concerns the target αvβ3 (Homo sapiens, UniProt P05106+P06756).
Series [2] concerns CA20948 rat pancreatic tumour. Particulars: CA20948 tumour model, 4 h p.i.
Another series concerns M21 human melanoma. Particulars: M21 tumour model, 120 min p.i.
The test system of series [3] is MDA-MB human breast cancer. Particulars: MDA-MB tumour model, 120 min p.i.
The subject of another series is U87MG human glioblastoma. Particulars: U87MG tumour model.
Series [4] relates to OVCAR-3 ovarian carcinoma. Particulars: OVCAR-3 tumour model, 120 min p.i.; for Tumour/blood: estimated from graphical presentations.
Series [5] has as its system ACHN human renal adenocarcinoma. Particulars: in vivo.
Series [6] relates to DLD-1 human colon adenocarcinoma. Particulars: DLD-1 tumour model, 60 min p.i.
Where [7] appears, read: 4 h p.i., estimated from graphical presentations.

αvβ3, sequence (P06756 31-889 limits assumed): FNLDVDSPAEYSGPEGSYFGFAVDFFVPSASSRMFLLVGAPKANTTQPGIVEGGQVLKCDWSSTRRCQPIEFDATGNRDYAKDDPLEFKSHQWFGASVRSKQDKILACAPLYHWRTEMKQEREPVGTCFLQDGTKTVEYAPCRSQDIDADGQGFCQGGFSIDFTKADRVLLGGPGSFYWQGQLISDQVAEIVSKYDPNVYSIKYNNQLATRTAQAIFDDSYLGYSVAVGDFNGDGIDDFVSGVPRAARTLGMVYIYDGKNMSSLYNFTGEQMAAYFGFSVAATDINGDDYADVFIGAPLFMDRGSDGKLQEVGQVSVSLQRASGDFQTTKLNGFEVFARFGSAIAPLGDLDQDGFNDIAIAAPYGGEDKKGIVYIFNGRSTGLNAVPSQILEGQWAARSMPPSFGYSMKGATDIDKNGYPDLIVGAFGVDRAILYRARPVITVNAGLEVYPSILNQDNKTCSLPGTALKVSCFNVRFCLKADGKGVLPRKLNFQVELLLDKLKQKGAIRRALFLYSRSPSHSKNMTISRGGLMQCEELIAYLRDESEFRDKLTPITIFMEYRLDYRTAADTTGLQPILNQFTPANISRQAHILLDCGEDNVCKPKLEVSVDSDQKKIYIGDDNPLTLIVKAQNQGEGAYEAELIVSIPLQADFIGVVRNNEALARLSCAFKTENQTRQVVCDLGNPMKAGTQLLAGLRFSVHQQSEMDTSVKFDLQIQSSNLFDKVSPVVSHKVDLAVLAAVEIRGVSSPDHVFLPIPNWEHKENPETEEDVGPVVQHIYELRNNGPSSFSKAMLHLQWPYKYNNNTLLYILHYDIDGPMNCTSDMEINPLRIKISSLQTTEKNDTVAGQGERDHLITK
αvβ3, sequence (P06756 891-1048 partner limits assumed): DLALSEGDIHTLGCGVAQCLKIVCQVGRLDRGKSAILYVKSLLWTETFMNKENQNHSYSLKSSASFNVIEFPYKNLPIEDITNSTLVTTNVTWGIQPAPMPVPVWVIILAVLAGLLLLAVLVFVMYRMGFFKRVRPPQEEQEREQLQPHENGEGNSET
αvβ3, sequence (P05106 27-788): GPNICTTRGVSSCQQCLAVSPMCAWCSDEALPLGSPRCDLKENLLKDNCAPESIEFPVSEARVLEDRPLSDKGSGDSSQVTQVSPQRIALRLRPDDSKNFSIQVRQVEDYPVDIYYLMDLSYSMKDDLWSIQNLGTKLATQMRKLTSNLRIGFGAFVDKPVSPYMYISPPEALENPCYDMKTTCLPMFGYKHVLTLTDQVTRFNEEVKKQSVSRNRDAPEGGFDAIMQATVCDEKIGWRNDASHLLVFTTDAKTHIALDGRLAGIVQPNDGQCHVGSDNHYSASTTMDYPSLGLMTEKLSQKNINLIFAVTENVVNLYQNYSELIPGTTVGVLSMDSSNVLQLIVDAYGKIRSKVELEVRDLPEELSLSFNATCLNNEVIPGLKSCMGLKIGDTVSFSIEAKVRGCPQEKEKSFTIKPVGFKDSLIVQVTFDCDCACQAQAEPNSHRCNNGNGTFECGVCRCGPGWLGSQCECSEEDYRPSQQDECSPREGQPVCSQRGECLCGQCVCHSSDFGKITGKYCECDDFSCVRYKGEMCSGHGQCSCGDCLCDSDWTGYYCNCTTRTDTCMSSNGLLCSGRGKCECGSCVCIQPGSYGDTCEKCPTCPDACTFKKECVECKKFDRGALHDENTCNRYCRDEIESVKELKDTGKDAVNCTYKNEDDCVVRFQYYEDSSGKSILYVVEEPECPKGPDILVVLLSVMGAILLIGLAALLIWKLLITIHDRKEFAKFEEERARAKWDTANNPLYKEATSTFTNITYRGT

Turning to c(RGDy V), in series [1] (120 min p.i.), the Tumour uptake is on record as 1.5 ± 0.2^b % ID/g, the Tumour/blood was 8.6 and the Tumour/muscle is recorded as 4.9. Moreover, at αvβ3, the IC50 (as a rule, the midpoint of a concentration-inhibition curve) was 10 nM.
Regarding DTPA-RGD, in series [2], the Tumour uptake is 0.1 ± 0.02^d % ID/g, the Tumour/blood was 9.2 and the Tumour/muscle was 7.9.
On to DKCK-RGD, for which, in the series on M21 human melanoma, the Tumour uptake is 1.1 ± 0.1^b % ID/g, the Tumour/blood is on record as 9.7 and the Tumour/muscle is listed as 8.1.
Turning to DOTA-c(RGDyK), in [3], the Tumour uptake is 1.4 ± 0.1^b % ID/g, the Tumour/blood is given as 6.9 and the Tumour/muscle was 6.
Take mPEG-c(RGDyK): in the series on U87MG human glioblastoma (120 min p.i.), the Tumour uptake is given as 5.1 ± 0.3^b % ID/g and the Tumour/blood was 85.
Turning to RGD, the half-inhibitory concentration (IC50) at αvβ3 was 40 nM. Besides, in the series on M21 human melanoma, the Tumour uptake is on record as 1.8 ± 0.3^b % ID/g, the Tumour/blood is given as 7.9 and the Tumour/muscle is 6.2.
Consider c(RGDfY), for which, in [1] (60 min p.i.), the Tumour uptake is listed as 0.4 ± 0.1^c % ID/g, the Tumour/blood is 1.1 and the Tumour/muscle is on record as 2.7. Also, the IC50 on αvβ3 was 40 nM.
Take FP-PEG-c(RGDyK): in the series on U87MG human glioblastoma (120 min p.i.), the Tumour uptake is given as 2.6 ± 0.1^b % ID/g, the Tumour/blood is on record as 18.4 and the Tumour/muscle is 25.6.
On to c(RGDyK), for which, in series [3], the Tumour uptake is on record as 3.0 ± 0.1^b % ID/g, the Tumour/blood is 20.2 and the Tumour/muscle is recorded as 4.7.
Turning to ((c(RGDfE)HEG)2-K)2-Dpr, on αvβ3, the IC50 was 0.2 nM. In the series on M21 human melanoma, the Tumour uptake is 1.7 ± 0.1^b % ID/g, the Tumour/blood was 21.3 and the Tumour/muscle is on record as 23.1.
Regarding HYNIC-E-[c(RGDfK])2, in [4], the Tumour uptake is on record as 5.8 ± 0.5^b % ID/g and the Tumour/blood is 10^g ^.
Turning to RGD-4C, in series [5], the Tumour/blood was 1.6 and the Tumour/muscle is given as 2.6.
c(RGDfMe V): in series [6], the Tumour uptake is on record as 0.9 ± 0.1^c % ID/g, the Tumour/blood is reported as 5.2 and the Tumour/muscle is 2.7.
In the case of (c(RGDfE)HEG)2-K-Dpr, the IC50 on αvβ3 was 3 nM. In addition, in the series with M21 human melanoma, the Tumour uptake is recorded as 1.6 ± 0.1^b % ID/g, the Tumour/blood was 12.4 and the Tumour/muscle was 14.2.
Turning to c(RGDfE)HEG-Dpr, the 50% inhibitory concentration (IC50) at αvβ3 (IC50 value for the corresponding compound) was 20 nM. Also, in the series with M21 human melanoma, the Tumour uptake is on record as 0.5 ± 0.1^b % ID/g, the Tumour/blood is given as 12.4 and the Tumour/muscle is reported as 13.2.
Consider FB-c(RGDyK), for which, in [3], the Tumour uptake is on record as 1.0 ± 0.3^b % ID/g, the Tumour/blood was 12.2 and the Tumour/muscle is given as 5.8.
DOTA-PEG-c(RGDyK): in the series with U87MG human glioblastoma (4 h p.i.), the Tumour uptake is listed as 1.6 ± 0.2^d % ID/g. Moreover, in the series on U87MG human glioblastoma (setting [7]), the Tumour/blood was 80^g ^ and the Tumour/muscle is listed as 16^g ^.
Consider DOTA-E-[c(RGDfK])2, for which, in series [4], the Tumour uptake was 7.5 ± 1.5^b % ID/g and the Tumour/blood is listed as 40^g ^.
On to FP-E-c(RGDyK)2, for which the Tumour uptake in [3] is 4^b,g % ID/g.
Turning to DOTA-E[E-c(RGDyK)z]2, the Tumour uptake with U87MG human glioblastoma (120 min p.i.) was 7.6 ± 0.6^b % ID/g.
In the case of DOTA-RGD, in [1] (60 min p.i.), the Tumour uptake is given as 1.1 ± 0.04^c % ID/g, the Tumour/blood is reported as 11.8 and the Tumour/muscle was 2.8.
